Results from patent US20260021158A1, “GRANULAR COMPOSITIONS COMPRISING A PEPTIDE AND USES THEREOF” (TARSIER PHARMA LTD., priority 2022, published 2026).

Assay: Assay of physical mixtures and extrudates for API stability by HPLC-UV
Type: physicochemical
Conditions: after the grinding and sieving process as well as extrusion; physical mixture and extrudate
Experimental: Physical mixtures were assayed for drug load and stability post grinding and sieving. 5 mg of sample was weighed into an aluminum weighing boat and transferred to a low-binding Eppendorf, followed by the addition of 50 uL of ACN. This was vortexed vigorously until the polymer had dissolved and the API precipitated. Next, water was added and the mixture vortexed vigorously again until the API dissolved completely, and polymer had precipitated. For the 18% drug loaded physical mixtures, 2950 μL water was added and for the 9% drug loaded physical mixtures, 1450 μL water was added. Lastly, the Eppendorfs were centrifuged for 30 seconds at a speed of 5′000 RPM.
Extrudates were assayed for drug load and stability by cutting them to specific weights to give the same end concentration as the standards (net peptide concentration of 0.3 mg/mL) after the addition of diluent. […] Lastly, the Eppendorfs were centrifuged and supernatants analyzed.
Drug load and stability of API in the extrudates were quantified by HPLC-UV as describe above. […] Additionally, the homogeneity of the entire length of the extrudate was assessed by cutting and weighing three 3 mm pieces from each section from 1 to 16 (N=16, n=3) and assaying in the same way as outlined above (Assay of physical mixtures by HPLC-UV). Lastly, the average diameter of the extrudates was measured by caliper.

In the case of `C[C@@H](O)[C@H](NN)C(=O)N[C@@H](CCCCN)C(=O)N1CCC[C@H]1C(=O)N[C@@H](CCCNC(=N)N)C(=O)C(=O)CNNC(Cc1ccc(O)c(/N=N/c2ccc(OP(=O)([O-])OCC[N+](C)(C)C)cc2)c1)C(=O)O` (stereo partly shown) [PTC, Dazdotuftide], the “stability of API after processing” value is reported as “stable”.
